Tested on in one data set: not given
Conditions: not given
For orientation: melting point means the temperature of the solid-liquid transition. In turn, `O=C1CCc2cccc(C3CCN(Cc4cncc(-c5ccc(F)cc5)c4)CC3)c2N1` [Compound 5d, 8-(1-((5-(4-Fluorophenyl)pyridin-3-yl)methyl)piperidin-4-yl)-3,4-dihydroquinolin-2(1H)-one] came in with a melting point of 136 to 138 °C.

The compound `COc1ccc2cccc(C3CCN(Cc4ccc(-c5ccccc5)cc4)CC3)c2n1` [Compound 3a, 8-(1-(Biphenyl-4-ylmethyl)piperidin-4-yl)-2-methoxyquinoline] came in with a melting point of 84 to 85 °C.

`O=c1ccc2cccc(C3CCN(Cc4cncc(-c5ccccc5)c4)CC3)c2[nH]1` [Compound 4c, 8-(1-((5-Phenylpyridin-3-yl)methyl)piperidin-4-yl)quinolin-2(1H)-one] had a melting point of 158 to 160 °C.

Turning to `O=c1ccc2cccc(C3CCN(Cc4cncc(C5=CCCC5)c4)CC3)c2[nH]1` [Compound 4f, 8-(1-((5-Cyclopentenylpyridin-3-yl)-methyl)piperidin-4-yl)quinolin-2(1H)-one], the melting point is 133 to 135 °C.

The compound `O=c1ccc2cccc(C3CCN(Cc4ccc(-c5ccccc5)cc4)CC3)c2[nH]1` [Compound 4a, 8-(1-(Biphenyl-4-ylmethyl)piperidin-4-yl)quinolin-2(1H)-one] returned a melting point of 146 to 148 °C.

`O=c1ccc2cccc(C3CCN(Cc4ccc(-c5ccc(F)cc5)cc4)CC3)c2[nH]1` [Compound 4b, 8-(1-((4′-Fluorobiphenyl-4-yl)methyl)piperidin-4-yl)quinolin-2(1H)-one] displayed a melting point of 159 to 161 °C.

In the case of `O=C1CCc2cccc(C3CCN(Cc4cccc(C5=CCCC5)c4)CC3)c2N1` [Compound 5e, 8-(1-(3-Cyclopentenylbenzyl)piperidin-4-yl)-3,4-dihydroquinolin-2(1H)-one], the melting point was 115 to 117 °C.

On to `O=C1CCc2cccc(C3CCN(Cc4ccc(-c5ccc(F)cc5)cc4)CC3)c2N1` [Compound 5b, 8-(1-((4′-Fluorobiphenyl-4-yl)methyl)piperidin-4-yl)-3,4-dihydroquinolin-2(1H)-one], for which the melting point is 132 to 134 °C.

`O=c1ccc2cccc(C3CCN(Cc4cncc(-c5ccc(F)cc5)c4)CC3)c2[nH]1` [Compound 4d, 8-(1-((5-(4-Fluorophenyl)pyridin-3-yl)methyl)piperidin-4-yl)quinolin-2(1H)-one] yielded a melting point of 161 to 163 °C.

On to `O=C1CCc2cccc(C3CCN(Cc4ccc(-c5ccccc5)cc4)CC3)c2N1` [Compound 5a, 8-(1-(Biphenyl-4-ylmethyl)piperidin-4-yl)-3,4-dihydroquinolin-2(1H)-one], for which the melting point was 116 to 118 °C.

Take `COc1ccc2cccc(C3CCN(Cc4cncc(-c5ccccc5)c4)CC3)c2n1` [Compound 3c, 2-Methoxy-8-(1-((5-phenylpyridin-3-yl)methyl)piperidin-4-yl)quinoline]: the melting point lay in the range of 135 to 137 °C.

`COc1ccc2cccc(C3CCN(Cc4cncc(-c5ccc(F)cc5)c4)CC3)c2n1` [Compound 3d, 8-(1-((5-(4-Fluorophenyl)pyridin-3-yl)methyl)piperidin-4-yl)-2-methoxyquinoline] displayed a melting point of 156 to 158 °C.

`COc1ccc2cccc(C3CCN(Cc4cccc(C5=CCCC5)c4)CC3)c2n1` [Compound 3e, 8-(1-(3-Cyclopentenylbenzyl)piperidin-4-yl)-2-methoxyquinoline] came in with a melting point of 125 to 126 °C.

Compound `O=c1ccc2cccc(C3CCN(Cc4cccc(C5=CCCC5)c4)CC3)c2[nH]1` [Compound 4e, 8-(1-(3-Cyclopentenylbenzyl)piperidin-4-yl)quinolin-2(1H)-one] gave a melting point of 123 to 125 °C.

In turn, `O=C1CCc2cccc(C3CCN(Cc4cncc(C5=CCCC5)c4)CC3)c2N1` [Compound 5f, 8-(1-((5-cyclopentenylpyridin-3-yl)methyl)piperidin-4-yl)-3,4-dihydroquinolin-2(1H)-one] returned a melting point of 123 to 125 °C.

For another data set, the system named is phencyclidine-induced social interaction deficits. The conditions noted are these: background statement on prior-art compounds; cited from earlier work.
In the case of `O=c1[nH]c2cccc(N3CCN(Cc4cccc(-c5ccccc5)c4)CC3)c2o1` [bifeprunox], the “oppose phencyclidine-induced social interaction deficits” value is reported as “failure”.

`Fc1ccc(-c2cncc(CN3CCN(c4cccc5c4OCCO5)CC3)c2)cc1` [adoprazine]: the “oppose phencyclidine-induced social interaction deficits” value is reported as “failure”.

The values are drawn from US20140296528A1, “4-ARYL-1-(BIARYLMETHYLENE) PIPERIDINE COMPOUNDS” (KING ABDULAZIZ CITY FOR SCIENCE AND TECHNOLOGY, priority 2013, published 2014).
